Holding throughout (assay): Transient transfection (transactivation) assay in CV-1 cells, GAL4-PPAR chimera, luciferase reporter
Common to all, as to type: cell-based
On the technique in general: In a reporter assay the amount or activity of a reporter protein is the signal.

Assay [1] deals with T1, PPAR alpha (Homo sapiens, UniProt Q07869).
T1 construct: expressed in transfected cells; host or cells: CV-1 cells
T1 sequence (Q07869 239-466 limits assumed): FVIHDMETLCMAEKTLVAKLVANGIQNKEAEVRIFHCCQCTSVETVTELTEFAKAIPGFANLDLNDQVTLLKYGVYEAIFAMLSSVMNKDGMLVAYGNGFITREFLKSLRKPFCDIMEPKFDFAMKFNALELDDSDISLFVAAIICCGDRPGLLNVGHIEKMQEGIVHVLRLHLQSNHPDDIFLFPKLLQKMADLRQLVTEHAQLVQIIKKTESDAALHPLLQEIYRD
The text has this:
Compounds may be screened for functional potency in transient transfection assays in CV-1 cells or other cell types for their ability to activate the PPAR subtypes (transactivation assay). A previously established chimeric receptor system was utilized to allow comparison of the relative transcriptional activity of the receptor subtypes on the same synthetic response element and to prevent endogenous receptor activation from complicating the interpretation of results. See, for example; Lehmann, J. M.; Moore, L. B.; Smith-Oliver, T. A; Wilkinson, W. O.; Willson, T. M.; Kliewer, S. A., An antidiabetic thiazolidinedione is a high affinity ligand for peroxisome proliferatur-activated receptor γ (PPARγ), J. Biol. Chem., 1995, 270, 12953-6. The ligand binding domains for murine and human PPAR-alpha, PPAR-gamma, and PPAR-delta are each fused to the yeast transcription factor GAL4 DNA binding domain. CV-1 cells were transiently transfected with expression vectors for the respective PPAR chimera along with a reporter construct containing four or five copies of the GAL4 DNA binding site driving expression of luciferase. After 8-16 h, the cells are replated into multi-well assay plates and the media is exchanged to phenol-red free DME medium supplemented with 5% delipidated calf serum. 4 hours after replating, cells were treated with either compounds or 1% DMSO for 20-24 hours. Luciferase activity was then assayed with Britelite (Perkin Elmer) following the manufacturer's protocol and measured with either the Perkin Elmer Viewlux or Molecular Devices Acquest Xsee, for example, Kliewer, S. A., et. al. Cell 1995, 83, 813-819). Rosiglitazone is used as a positive control in the hPPAR-γ assay. Wy-14643 and GW7647 is used as a positive control in the hPPAR-α assay. GW501516 is used as the positive control in the hPPAR-δ assay.
Compounds of Examples 1-233 were assayed to measure their biological activity with respect to their EC50 values and efficacy for modulating PPAR-alpha, PPAR-gamma, and PPAR-delta as set forth in Table 3.

The target of assay [2] is T2, PPAR delta (Homo sapiens, UniProt Q03181).
T2 construct: expressed in transfected cells; host or cells: CV-1 cells
T2 sequence (Q03181 211-439 limits assumed): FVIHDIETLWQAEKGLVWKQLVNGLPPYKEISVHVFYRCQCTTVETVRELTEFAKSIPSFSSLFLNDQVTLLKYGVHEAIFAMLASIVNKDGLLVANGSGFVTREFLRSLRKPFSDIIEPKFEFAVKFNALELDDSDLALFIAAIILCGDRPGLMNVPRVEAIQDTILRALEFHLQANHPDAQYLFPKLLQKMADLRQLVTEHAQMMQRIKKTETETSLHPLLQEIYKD

Assay [3] deals with T3, PPAR gamma (Homo sapiens, UniProt P37231).
T3 construct: expressed in transfected cells; host or cells: CV-1 cells
T3 sequence (P37231 238-503 limits assumed): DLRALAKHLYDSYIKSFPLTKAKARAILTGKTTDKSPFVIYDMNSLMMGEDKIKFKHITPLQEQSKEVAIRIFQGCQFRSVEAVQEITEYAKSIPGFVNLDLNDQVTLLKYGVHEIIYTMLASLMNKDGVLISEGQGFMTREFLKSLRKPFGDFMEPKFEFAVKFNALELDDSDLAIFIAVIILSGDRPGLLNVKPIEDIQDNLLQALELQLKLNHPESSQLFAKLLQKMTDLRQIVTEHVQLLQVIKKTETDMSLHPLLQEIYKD

One may read the EC50 as the midpoint of the concentration-response curve. Read a low EC50 as higher potency in that assay. Take `COC(=O)[C@@H]1CN(S(=O)(=O)c2ccc(C)c(CC(=O)O)c2)CCN1c1ccc(C(F)(F)F)cn1` [Example 42, (S)-4-(3-Carboxymethyl-4-methyl-benzenesulfonyl)-1-(5-trifluoromethyl-pyridin-2-yl)-piperazine-2-carboxylic acid methyl ester]: the figures for the EC50 in assay [1], in assay [2] and in assay [3] were more than 100 µM, less than 5 µM and 5 to 100 µM, respectively.

Take `Cc1ccc(S(=O)(=O)N2CCC(c3nccs3)CC2)cc1CC(=O)O` [Example 43, [2-Methyl-5-(4-thiazol-2-yl-piperidine-1-sulfonyl)-phenyl]-acetic acid]: the EC50 in assay [1], in assay [2] and in assay [3] was more than 100 µM throughout.

For the compound `Cc1ccc(S(=O)(=O)N2CCN(c3ncc(I)cn3)CC2)cc1CC(=O)O` [Example 44, {5-[4-(5-Iodo-pyrimidin-2-yl)-piperazine-1-sulfonyl]-2-methyl-phenyl}-acetic acid], the EC50 in assay [1], in assay [2] and in assay [3] was less than 5 µM in each case.

Turning to `Cc1ccc(S(=O)(=O)N2CC=C(c3ccc(C(F)(F)F)cc3)CC2)cc1CC(=O)O` [Example 45, {2-Methyl-5-[4-(4-trifluoromethyl-phenyl)-3,6-dihydro-2H-pyridine-1-sulfonyl]-phenyl}-acetic acid], the EC50 in assay [1] is 5 to 100 µM; in assay [2], less than 5 µM; in assay [3] it was 5 to 100 µM.

Take `Cc1ccc(S(=O)(=O)N2CCC(c3nc(C(F)(F)F)cs3)CC2)cc1CC(=O)O` [Example 46, {2-Methyl-5-[4-(4-trifluoromethyl-thiazol-2-yl)-piperidine-1-sulfonyl]-phenyl}-acetic acid]: the EC50 in assay [1] was more than 100 µM; in assay [2] it was more than 100 µM; in assay [3], 5 to 100 µM.

As to `Cc1ccc(S(=O)(=O)N2CCN(c3ncccn3)CC2)cc1CC(=O)O` [Example 47], the half-maximal effective concentration (EC50) was more than 100 µM in assay [1], 5 to 100 µM in assay [2] and 5 to 100 µM in assay [3].

For the compound `Cc1ccc(S(=O)(=O)N2CCC(c3ccc(C(F)(F)F)cc3)CC2)cc1CC(=O)O` [Example 48, {2-Methyl-5-[4-(4-trifluoromethyl-phenyl)-piperidine-1-sulfonyl]-phenyl}-acetic acid], the concentration for a half-maximal effect (EC50) in assay [1] was more than 100 µM; in assay [3] it was 5 to 100 µM. For the same compound, the “PPAR delta EC50” value in assay [2] is given as “B/C”.

Consider `Cc1ccc(S(=O)(=O)N2CCC(c3ccc(Cl)c(Cl)c3)CC2)cc1CC(=O)O` [Example 49, {5-[4-(3,4-Dichloro-phenyl)-piperidine-1-sulfonyl]-2-methyl-phenyl)-acetic acid], for which the 50% effective concentration (EC50) is more than 100 µM in assay [1], 5 to 100 µM in assay [2] and 5 to 100 µM in assay [3].

With `Cc1ccc(S(=O)(=O)N2CCN(c3nc(Cl)cs3)CC2)cc1CC(=O)O` [Example 50, {5-[4-(4-Chloro-thiazol-2-yl)-piperazine-1-sulfonyl]-2-methyl-phenyl}-acetic acid], the values for the EC50 in assay [1], in assay [2] and in assay [3] were more than 100 µM, 5 to 100 µM and 5 to 100 µM, respectively.

Regarding `Cc1ccc(S(=O)(=O)N2CCN(c3nc(Cl)c(Cl)s3)CC2)cc1CC(=O)O` [Example 51, {5-[4-(4,5-Dichloro-thiazol-2-yl)-piperazine-1-sulfonyl]-2-methyl-phenyl}-acetic acid], the EC50 is 5 to 100 µM in assay [1], less than 5 µM in assay [2] and less than 5 µM in assay [3].

As to `Cc1ccc(S(=O)(=O)N2CCN(c3nc(C(F)(F)F)cs3)CC2)cc1CC(=O)O` [Example 53, {2-Methyl-5-[4-(4-trifluoromethyl-thiazol-2-yl)-piperazine-1-sulfonyl]-phenyl}-acetic acid], the concentration giving a half-maximal response (EC50) was more than 100 µM in assay [1], 5 to 100 µM in assay [2] and 5 to 100 µM in assay [3].

Take `Cc1ccc(S(=O)(=O)N2CCN(c3ncc(C(F)(F)F)cc3Cl)CC2)cc1CC(=O)O` [Example 54, {5-[4-(3-Chloro-5-trifluoromethyl-pyridin-2-yl)-piperazine-1-sulfonyl]-2-methyl-phenyl}-acetic acid]: the EC50 in assay [1], in assay [2] and in assay [3] was less than 5 µM in each case.

`Cc1ccc(S(=O)(=O)N2CCN(c3ncc(Br)s3)CC2)cc1CC(=O)O` [Example 55, {5-[4-(5-Bromo-thiazol-2-yl)-piperazine-1-sulfonyl]-2-methyl-phenyl}-acetic acid]: the concentration giving a half-maximal response (EC50) in assay [1] was 5 to 100 µM; in assay [2], less than 5 µM; in assay [3], 5 to 100 µM.

Regarding `Cc1ccc(S(=O)(=O)N2CCN(c3ccc([N+](=O)[O-])cn3)CC2)cc1CC(=O)O` [Example 56, {2-Methyl-5-[4-(5-nitro-pyridin-2-yl)-piperazine-1-sulfonyl]-phenyl}-acetic acid], the EC50 was more than 100 µM in assay [1], less than 5 µM in assay [2] and 5 to 100 µM in assay [3].

Regarding `Cc1ccc(S(=O)(=O)N2CCN(c3ncc(Cl)cn3)CC2)cc1CC(=O)O` [Example 57, {5-[4-(5-Chloro-pyrimidin-2-yl)-piperazine-1-sulfonyl]-2-methyl-phenyl}-acetic acid], the concentration for a half-maximal effect (EC50) in assay [1] was 5 to 100 µM; in assay [2], less than 5 µM; in assay [3], less than 5 µM.

Turning to `Cc1ccc(S(=O)(=O)N2CCN(c3ncc(Br)cn3)CC2)cc1CC(=O)O` [Example 58, {5-[4-(5-Bromo-pyrimidin-2-yl)-piperazine-1-sulfonyl]-2-methyl-phenyl}-acetic acid], the values for the EC50 in assay [1], in assay [2] and in assay [3] were 5 to 100 µM, less than 5 µM and less than 5 µM, respectively.

With `Cc1ccc(S(=O)(=O)N2CCN(c3ncc(C(F)(F)F)cn3)CC2)cc1CC(=O)O` [Example 59, {2-Methyl-5-[4-(5-trifluoromethyl-pyrimidin-2-yl)-piperazine-1-sulfonyl]-phenyl}-acetic acid], the EC50 in assay [1], in assay [2] and in assay [3] was less than 5 µM throughout.

Consider `Cc1ccc(S(=O)(=O)N2CCN(c3ccc(Br)cn3)CC2)cc1CC(=O)O` [Example 61, {5-[4-(5-Bromo-pyridin-2-yl)-piperazine-1-sulfonyl]-2-methyl-phenyl}-acetic acid], for which the half-maximal effective concentration (EC50) in assay [1] was more than 100 µM; in assay [2], less than 5 µM; in assay [3] it was less than 5 µM.

`Cc1ccc(S(=O)(=O)N2CCN(c3ccc(Cl)cn3)CC2)cc1CC(=O)O` [Example 62, {5-[4-(5-Chloro-pyridin-2-yl)-piperazine-1-sulfonyl]-2-methyl-phenyl}-acetic acid]: the concentration for a half-maximal effect (EC50) is more than 100 µM in assay [1] and less than 5 µM in assay [2]. The “PPAR gamma EC50” value in assay [3] is reported as “B/C”.

As to `Cc1ccc(S(=O)(=O)N2CCN(c3ncc(F)cn3)CC2)cc1CC(=O)O` [Example 63, {5-[4-(5-Fluoro-pyrimidin-2-yl)-piperazine-1-sulfonyl]-2-methyl-phenyl}-acetic acid], the EC50 in assay [1] is more than 100 µM; in assay [2], less than 5 µM; in assay [3], 5 to 100 µM.

Regarding `Cc1ccc(S(=O)(=O)N2CCN(c3nc(Cl)ncc3F)CC2)cc1CC(=O)O` [Example 64, {5-[4-(2-Chloro-5-fluoro-pyrimidin-4-yl)-piperazine-1-sulfonyl]-2-methyl-phenyl}-acetic acid], the EC50 in assay [1] was more than 100 µM; in assay [2], more than 100 µM; in assay [3], 5 to 100 µM.

Regarding `Cc1ccc(S(=O)(=O)N2CC=C(c3ccc(C(F)(F)F)cn3)CC2)cc1CC(=O)O` [Example 66, [2-Methyl-5-(5-trifluoromethyl-3′,6′-dihydro-2^1H-[2,4′]bipyridinyl-1′-sulfonyl)-phenyl]-acetic acid], the concentration giving a half-maximal response (EC50) in assay [1] was 5 to 100 µM; in assay [2], less than 5 µM; in assay [3] it was more than 100 µM.
